Where two headings read alike, the source gives them in different places.
Tests used:
[1] = Plasma stability assay, rat plasma; type: in vitro ADME; conditions: 10 μM, 37° C.
Method: Plasma stability determination of the test compounds in rat, dog, cynomolgus monkey and human plasma is performed using HPLC-MS. For rat, incubations are carried out in 96-well polypropylene plates in 5 aliquots of 70 μL each (one for each time point). […] Five time points are analyzed (0, 15, 120, 480 and 1440 min). For dog, monkey and human, test compounds (2 μM, final solvent concentration 1%) were also incubated at 37° C. and analyzed at five time points (0, 10, 30, 60 and 120 min). All incubations are performed in duplicates. The samples are analyzed by HPLC-MS. The percentage of parent compound remaining after incubation in plasma is determined.

[2] = Polymorph screening of solid state drug substances; conditions: for Dry method and appearance: after stirring 50 °C 72 hours, dried solid; for XRPD results (Dried): dried solid after 50 °C 72 hours; for Visual observation 50° C. / Visual observation RT: target conc. 100 mg/ml
[3] = heating temp. 60 °C, obs. temp. 40 °C
[4] = heating temp. 40 °C, obs. temp. 40 °C
[5] = heating temp. 60 °C, obs. temp. 25 °C

SMILES: CCCCCCCCCCCCCCCCOC(=O)Oc1ccc2c3c1O[C@H]1C(=O)CC[C@@]4(O)C(C2)N(CC2CC2)CC[C@]314 [Compound 21, (4aS,7aR,12bS)-3-(cyclopropylmethyl)-4a-hydroxy-7-oxo-2,3,4,4a,5,6,7,7a-octahydro-1H-4,12-methanobenzofuro[3,2-e]isoquinolin-9-yl hexadecyl carbonate]
- % remaining at time point ([1]; 0 min): 100%
- % remaining at time point ([1]; 15 min): 73.5%
- % remaining at time point ([1]; 120 min): 68.3%
- % remaining at time point ([1]; 480 min): 59.8%
- % remaining at time point ([1]; 1440 min): 40.9%
- Dry method and appearance ([2]; Acetone): Evaporation/white powder
- XRPD results (Dried) ([2]; Acetone): Pattern A
- Visual observation 50° C. ([2]; Acetone): Clear
- Visual observation RT ([2]; Acetone): Slurry
- Dry method and appearance ([2]; EtOAc): Evaporation/white powder
- XRPD results (Dried) ([2]; EtOAc): Pattern A
- Visual observation 50° C. ([2]; EtOAc): Clear
- Visual observation RT ([2]; EtOAc): Slurry
- Dry method and appearance ([2]; Heptane): Evaporation/white powder
- XRPD results (Dried) ([2]; Heptane): Pattern A
- Visual observation 50° C. ([2]; Heptane): Clear
- Visual observation RT ([2]; Heptane): Slurry
- Dry method and appearance ([2]; Isopropanol): Evaporation/white powder
- XRPD results (Dried) ([2]; Isopropanol): Pattern A
- Visual observation 50° C. ([2]; Isopropanol): Clear
- Visual observation RT ([2]; Isopropanol): Slurry
- Dry method and appearance ([2]; MTBE): Evaporation/white powder
- XRPD results (Dried) ([2]; MTBE): Pattern A
- Visual observation 50° C. ([2]; MTBE): Clear
- Visual observation RT ([2]; MTBE): Clear
- Approximate Solubility (mg/mL) in Excipient: Cottonseed oil [3]: 101 to 134.8 mg/mL
- Approximate Solubility (mg/mL) in Excipient: Ethanol [3]: 50 to 100 mg/mL
- Approximate Solubility (mg/mL) in Excipient: Sesame oil [3]: 101 to 134.5 mg/mL

SMILES: C=C1CC[C@@]2(O)C3Cc4ccc(OC(=O)OCCCCCCCCCCCCCCCC)c5c4[C@@]2(CCN3CC2CC2)[C@H]1O5 [Compound 19, (4aS,7aS,12bS)-3-(cyclopropylmethyl)-4a-hydroxy-7-methylene-2,3,4,4a,5,6,7,7a-octahydro-1H-4,12-methanobenzofuro[3,2-e]isoquinolin-9-yl hexadecyl carbonate]
- % remaining at time point ([1]; 0 min): 100%
- % remaining at time point ([1]; 15 min): 70.1%
- % remaining at time point ([1]; 120 min): 71.5%
- % remaining at time point ([1]; 480 min): 43.8%
- % remaining at time point ([1]; 1440 min): 33.3%
- Dry method and appearance ([2]; Acetone): Evaporation/white powder
- XRPD results (Dried) ([2]; Acetone): Pattern A
- Visual observation 50° C. ([2]; Acetone): Clear
- Visual observation RT ([2]; Acetone): Slurry
- Dry method and appearance ([2]; EtOAc): Evaporation/white powder
- XRPD results (Dried) ([2]; EtOAc): Pattern A
- Visual observation 50° C. ([2]; EtOAc): Clear
- Visual observation RT ([2]; EtOAc): Slurry
- Dry method and appearance ([2]; Heptane): Evaporation/white powder
- XRPD results (Dried) ([2]; Heptane): Pattern A
- Visual observation 50° C. ([2]; Heptane): Clear
- Visual observation RT ([2]; Heptane): Slurry
- Dry method and appearance ([2]; Isopropanol): Evaporation/white powder
- XRPD results (Dried) ([2]; Isopropanol): Pattern A
- Visual observation 50° C. ([2]; Isopropanol): Clear
- Visual observation RT ([2]; Isopropanol): Slurry
- Dry method and appearance ([2]; MTBE): Evaporation/white powder
- XRPD results (Dried) ([2]; MTBE): Pattern A
- Visual observation 50° C. ([2]; MTBE): Clear
- Visual observation RT ([2]; MTBE): Clear
- Approximate Solubility (mg/mL) in Excipient: Cottonseed oil [4]: 67 to 80 mg/mL
- Approximate Solubility (mg/mL) in Excipient: Ethanol [4]: 27 to 42 mg/mL
- Approximate Solubility (mg/mL) in Excipient: Sesame oil [4]: 103 to 137 mg/mL

SMILES: C=C1CC[C@@]2(O)C3Cc4ccc(OC(=O)OCCCCCCCCCCCCCC)c5c4[C@@]2(CCN3CC2CC2)[C@H]1O5 [Compound 31, (4aS,7aS,12bS)-3-(cyclopropylmethyl)-4a-hydroxy-7-methylene-2,3,4,4a,5,6,7,7a-octahydro-1H-4,12-methanobenzofuro[3,2-e]isoquinolin-9-yl tetradecyl carbonate]
- % remaining at time point ([1]; 0 min): 100%
- % remaining at time point ([1]; 15 min): 123.2%
- % remaining at time point ([1]; 120 min): 73.5%
- % remaining at time point ([1]; 480 min): 54.4%
- % remaining at time point ([1]; 1440 min): 46.4%
- Dry method and appearance ([2]; Acetone): Evaporation/white powder
- XRPD results (Dried) ([2]; Acetone): Pattern A
- Visual observation 50° C. ([2]; Acetone): Clear
- Visual observation RT ([2]; Acetone): Slurry
- Dry method and appearance ([2]; EtOAc): Evaporation/white powder
- XRPD results (Dried) ([2]; EtOAc): Pattern A
- Visual observation 50° C. ([2]; EtOAc): Clear
- Visual observation RT ([2]; EtOAc): Clear
- Dry method and appearance ([2]; Heptane): Evaporation/white powder
- XRPD results (Dried) ([2]; Heptane): Pattern A
- Visual observation 50° C. ([2]; Heptane): Clear
- Visual observation RT ([2]; Heptane): Slurry
- Dry method and appearance ([2]; Isopropanol): Evaporation/white powder
- XRPD results (Dried) ([2]; Isopropanol): Pattern A
- Visual observation 50° C. ([2]; Isopropanol): Clear
- Visual observation RT ([2]; Isopropanol): Clear
- Dry method and appearance ([2]; MTBE): Evaporation/white powder
- XRPD results (Dried) ([2]; MTBE): Pattern A
- Visual observation 50° C. ([2]; MTBE): Clear
- Visual observation RT ([2]; MTBE): Slurry
- Approximate Solubility (mg/mL) in Excipient: Cottonseed oil [5]: >416.9 mg/mL
- Approximate Solubility (mg/mL) in Excipient: Sesame oil [5]: >413.5 mg/mL
- Equilibrium solubility (mg/mL) Water (Water, heating temp. 40 °C, obs. temp. 40 °C): <0.001 mg/mL

SMILES: CCCCCCCCCCCCOC(=O)Oc1ccc2c3c1O[C@H]1C(=O)CC[C@@]4(O)C(C2)N(CC2CC2)CC[C@]314 [Compound 11, (4aS,7aR,12bS)-3-(cyclopropylmethyl)-4a-hydroxy-7-oxo-2,3,4,4a,5,6,7,7a-octahydro-1H-4,12-methanobenzofuro[3,2-e]isoquinolin-9-yl dodecyl carbonate]
- % remaining at time point ([1]; 0 min): 100%
- % remaining at time point ([1]; 15 min): 0.7%
- % remaining at time point ([1]; 120 min): 0.3%
- % remaining at time point ([1]; 480 min): 0.2%
- % remaining at time point ([1]; 1440 min): 0%
- Dry method and appearance ([2]; Acetone): Evaporation/white powder
- XRPD results (Dried) ([2]; Acetone): Pattern A
- Visual observation 50° C. ([2]; Acetone): Clear
- Visual observation RT ([2]; Acetone): Slurry
- Dry method and appearance ([2]; EtOAc): Evaporation/white powder
- XRPD results (Dried) ([2]; EtOAc): Pattern A
- Visual observation 50° C. ([2]; EtOAc): Clear
- Visual observation RT ([2]; EtOAc): Slurry
- Dry method and appearance ([2]; Heptane): Evaporation/white powder
- XRPD results (Dried) ([2]; Heptane): Pattern B
- Visual observation 50° C. ([2]; Heptane): Clear
- Visual observation RT ([2]; Heptane): Clear
- Dry method and appearance ([2]; Isopropanol): Evaporation/white powder
- XRPD results (Dried) ([2]; Isopropanol): Pattern A
- Visual observation 50° C. ([2]; Isopropanol): Clear
- Visual observation RT ([2]; Isopropanol): Slurry
- Dry method and appearance ([2]; MTBE): Evaporation/white powder
- XRPD results (Dried) ([2]; MTBE): Pattern A
- Visual observation 50° C. ([2]; MTBE): Clear
- Visual observation RT ([2]; MTBE): Clear
- Approximate Solubility (mg/mL) in Excipient: Cottonseed oil [4]: >407 mg/mL
- Approximate Solubility (mg/mL) in Excipient: Cottonseed oil [5]: <51 mg/mL
- Approximate Solubility (mg/mL) in Excipient: Ethanol [4]: >218 mg/mL
- Approximate Solubility (mg/mL) in Excipient: Sesame oil [4]: >407 mg/mL
- Approximate Solubility (mg/mL) in Excipient: Sesame oil [5]: <50 mg/mL
